# From ChEMBL document CHEMBL1201862, “PubChem BioAssay data set” (2004)
#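 Following 48 hours of exposure in 96-well plates, responses at five concentrations were used to interpolate endpoints linearly. GI50: concentration for 50% inhibition of growth.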 Calls of active or inactive are those of the source. Cut-off read from the data, not from the text of the source: active = GI50 up to about 1.1 µM and inactive = higher.
# Legend:
# Experiment in all cases: NCI tumour cell line growth inhibition, 48 h
# [1] = system: COLO 205
# [2] = system: 786-0
# [3] = system: CCRF-CEM
# [4] = system: MDA-MB-231
# [5] = system: SK-MEL-28
# [6] = system: SK-MEL-5
# [7] = system: SN12C
# [8] = system: Hs-578T
# [9] = system: A498
# [10] = system: MOLT-4
# [11] = system: LOX IMVI
# [12] = system: MCF7
# [13] = system: CAKI-1
# [14] = system: BT-549
# [15] = system: OVCAR-4
# [16] = system: Malme-3M
# [17] = system: NCI-H522
# [18] = system: NCI/ADR-RES
# [19] = system: SF-295
# [20] = system: DU-145
# [21] = system: TK-10
# [22] = system: KM12
# [23] = system: UACC-257
# [24] = system: HCC 2998
# [25] = system: HOP-62
# [26] = system: SF-539
# [27] = system: SW-620
# [28] = system: SK-OV-3
# [29] = system: U-251
# [30] = system: HT-29
# [31] = system: SNB-75
# [32] = system: SR
# [33] = system: HCT-116
# [34] = system: MDA-MB-435
# [35] = system: NCI-H460
# [36] = system: MDA-N
# [37] = system: EKVX
# [38] = system: T47D
# [39] = system: IGROV-1
# [40] = system: UACC-62
# [41] = system: HCT-15
# [42] = system: SF-268
# [43] = system: OVCAR-8
# [44] = system: PC-3
# [45] = system: OVCAR-5
# [46] = system: M14
# [47] = system: K562
# [48] = system: HOP-92
# [49] = system: NCI-H226
# [50] = system: UO-31
# [51] = system: SK-MEL-2
# [52] = system: A549
# [53] = system: HL-60
# [54] = system: ACHN
# [55] = system: RXF 393
# [56] = system: SNB-19
# [57] = system: OVCAR-3
# [58] = system: NCI-H23
# [59] = system: RPMI-8226
smiles,measurement,setting,value
Cn1c2ccc(F)cc2c2ccc3c(c21)C(=O)C=CC3=O,GI50,[1],7.08 µM (inactive)
same,GI50,[2],3.41 µM (inactive)
same,GI50,[3],544 nM (active)
same,GI50,[4],4.09 µM (inactive)
same,GI50,[5],13.8 µM (inactive)
same,GI50,[6],16.9 µM (inactive)
same,GI50,[7],15.4 µM (inactive)
same,GI50,[8],29.9 µM (inactive)
same,GI50,[9],55.7 µM (inactive)
same,GI50,[10],900 nM (active)
same,GI50,[11],6.17 µM (inactive)
same,GI50,[12],2.2 µM (inactive)
same,GI50,[13],4.23 µM (inactive)
same,GI50,[14],14 µM (inactive)
same,GI50,[15],5.14 µM (inactive)
same,GI50,[16],8.71 µM (inactive)
same,GI50,[17],2.15 µM (inactive)
same,GI50,[18],20.2 µM (inactive)
same,GI50,[19],66.1 µM (inactive)
same,GI50,[20],22 µM (inactive)
same,GI50,[21],4.56 µM (inactive)
same,GI50,[22],31.5 µM (inactive)
same,GI50,[23],9.86 µM (inactive)
same,GI50,[24],26.9 µM (inactive)
same,GI50,[25],> 66.5 µM (inactive)
same,GI50,[26],16.6 µM (inactive)
same,GI50,[27],2.66 µM (inactive)
same,GI50,[28],61 µM (inactive)
same,GI50,[29],14.3 µM (inactive)
same,GI50,[30],19.5 µM (inactive)
same,GI50,[31],33.3 µM (inactive)
same,GI50,[32],1.56 µM (inactive)
same,GI50,[33],6.73 µM (inactive)
same,GI50,[34],16.4 µM (inactive)
same,GI50,[35],> 57.3 µM (inactive)
same,GI50,[36],13.3 µM (inactive)
same,GI50,[37],16 µM (inactive)
same,GI50,[38],2.77 µM (inactive)
same,GI50,[39],14.6 µM (inactive)
same,GI50,[40],20.5 µM (inactive)
same,GI50,[41],13.7 µM
same,GI50,[42],21 µM (inactive)
same,GI50,[43],9.35 µM (inactive)
same,GI50,[44],8.67 µM (inactive)
same,GI50,[45],43.6 µM (inactive)
same,GI50,[46],12.1 µM (inactive)
same,GI50,[47],1.63 µM (inactive)
same,GI50,[48],6.22 µM (inactive)
same,GI50,[49],20.3 µM (inactive)
same,GI50,[50],7.52 µM (inactive)
same,GI50,[51],23.1 µM (inactive)
same,GI50,[52],> 64.1 µM (inactive)
same,GI50,[53],598 nM (active)
same,GI50,[54],5.85 µM (inactive)
same,GI50,[55],3.28 µM (inactive)
same,GI50,[56],50.8 µM (inactive)
same,GI50,[57],7.21 µM (inactive)
same,GI50,[58],13.8 µM (inactive)
same,GI50,[59],6.93 µM (inactive)
COc1ccc2/c(=C/c3ccc(N(C)C)cc3)c3cc(-c4ccccc4)[n+](C)n3c2c1,GI50,[1],0.0264 µM (active)
same,GI50,[2],0.161 µM (active)
same,GI50,[3],395 nM (active)
same,GI50,[4],0.31 µM (active)
same,GI50,[5],0.164 µM (active)
same,GI50,[6],0.0392 µM (active)
same,GI50,[7],0.223 µM (active)
same,GI50,[8],0.142 µM (active)
same,GI50,[9],0.408 µM (active)
same,GI50,[10],180 nM (active)
same,GI50,[11],0.161 µM (active)
same,GI50,[12],0.126 µM (active)
same,GI50,[13],1.2 µM (inactive)
same,GI50,[14],0.0957 µM (active)
same,GI50,[15],0.347 µM (active)
same,GI50,[16],0.191 µM (active)
same,GI50,[17],0.153 µM (active)
same,GI50,[18],9.66 µM (inactive)
same,GI50,[19],0.194 µM (active)
same,GI50,[20],0.179 µM (active)
same,GI50,[21],0.239 µM (active)
same,GI50,[22],0.192 µM (active)
same,GI50,[23],0.135 µM (active)
same,GI50,[24],0.115 µM (active)
same,GI50,[25],0.345 µM (active)
same,GI50,[26],0.495 µM (active)
same,GI50,[27],0.15 µM (active)
same,GI50,[28],0.282 µM (active)
same,GI50,[29],< 0.0318 µM (active)
same,GI50,[30],0.104 µM (active)
same,GI50,[31],0.285 µM (active)
same,GI50,[32],0.092 µM (active)
same,GI50,[33],0.17 µM (active)
same,GI50,[34],0.0875 µM (active)
same,GI50,[35],0.245 µM (active)
same,GI50,[36],0.0889 µM (active)
same,GI50,[37],0.817 µM (active)
same,GI50,[38],0.0805 µM (active)
same,GI50,[39],0.112 µM (active)
same,GI50,[40],0.199 µM (active)
same,GI50,[41],1 µM
same,GI50,[42],0.292 µM (active)
same,GI50,[43],0.0568 µM (active)
same,GI50,[44],0.09 µM (active)
same,GI50,[45],0.52 µM (active)
same,GI50,[46],0.139 µM (active)
same,GI50,[47],0.057 µM (active)
same,GI50,[48],0.0931 µM (active)
same,GI50,[49],0.265 µM (active)
same,GI50,[50],0.735 µM (active)
same,GI50,[51],0.18 µM (active)
same,GI50,[52],0.261 µM (active)
same,GI50,[53],21.8 nM (active)
same,GI50,[54],0.405 µM (active)
same,GI50,[55],0.59 µM (active)
same,GI50,[56],0.134 µM (active)
same,GI50,[57],0.0834 µM (active)
same,GI50,[58],0.158 µM (active)
same,GI50,[59],0.0263 µM (active)
